Structures can show the parent of a compound that is named as a salt.
Molecular target: T1, glycine transporter-1 (GlyT-1) (Homo sapiens, UniProt P48067)
T1 construct: JAR cells (ATCC#HTB-144), which endogenously express GlyT-1; host or cells: JAR human choriocarcinoma cells
T1 sequence (P48067 1-706): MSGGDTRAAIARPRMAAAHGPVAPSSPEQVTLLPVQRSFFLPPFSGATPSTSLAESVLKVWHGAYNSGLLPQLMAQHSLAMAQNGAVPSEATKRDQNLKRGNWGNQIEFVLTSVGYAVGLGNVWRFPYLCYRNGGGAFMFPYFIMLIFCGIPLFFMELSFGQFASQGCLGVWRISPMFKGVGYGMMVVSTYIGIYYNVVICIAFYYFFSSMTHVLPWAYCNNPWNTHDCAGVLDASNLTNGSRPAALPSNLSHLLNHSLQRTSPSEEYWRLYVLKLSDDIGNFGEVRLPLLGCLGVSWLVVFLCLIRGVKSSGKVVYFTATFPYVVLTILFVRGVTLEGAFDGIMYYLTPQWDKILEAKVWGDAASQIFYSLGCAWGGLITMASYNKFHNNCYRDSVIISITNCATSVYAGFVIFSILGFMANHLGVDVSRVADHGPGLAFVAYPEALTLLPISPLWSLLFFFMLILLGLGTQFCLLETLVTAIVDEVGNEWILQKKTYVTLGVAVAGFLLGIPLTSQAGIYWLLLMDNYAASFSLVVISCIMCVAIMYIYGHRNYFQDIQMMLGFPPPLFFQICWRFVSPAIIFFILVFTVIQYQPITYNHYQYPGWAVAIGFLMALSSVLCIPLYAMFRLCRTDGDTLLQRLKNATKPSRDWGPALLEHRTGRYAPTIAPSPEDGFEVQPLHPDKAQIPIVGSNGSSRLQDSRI
Assay: [14C]glycine uptake assay in JAR cells endogenously expressing GlyT-1 (scintillation proximity)
Format: cell-based
Settings: JAR cells, [14C]glycine 5 μM, 3 hour incubation; read-out: GlyT-1 IC50
Procedure, shortened: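 IC50 comes from a four-parameter fit of nine-point, duplicate curves measuring inhibition of 5 μM [14C]glycine uptake, read by scintillation proximity after 3 h at 37 °C. Cells are human JAR, which express GlyT-1 endogenously, given 10 min compound pre-treatment in pH 7.4 buffer with 5 mM alanine and 0.75% DMSO.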

IC50 [nM]	SMILES
2780	CCS(=O)(=O)N1CCN(C2(CNC(=O)c3c(F)ccc(C(F)(F)F)c3F)CCC(F)(F)CC2)CC1 [compound 211, N-((1-(4-(Ethylsulfonyl)piperazin-1-yl)-4,4-difluorocyclohexyl)methyl)-2,6-difluoro-3-(trifluoromethyl) benzamide Hydrochloride]
209	CCS(=O)(=O)N1CCN(C2(CNC(=O)c3cc(F)c(Cl)cc3Cl)CCC(F)(F)CC2)CC1 [compound 212, 2,4-Dichloro-N-((1-(4-(ethylsulfonyl)piperazin-1-yl)-4,4-difluorocyclohexyl)methyl)-5-fluorobenzamide Hydrochloride]
875	CCS(=O)(=O)N1CCN(C2(CNC(=O)c3c(F)ccc(Cl)c3F)CCC(F)(F)CC2)CC1 [compound 213, 3-Chloro-N-((1-(4-(ethylsulfonyl)piperazin-1-yl)-4,4-difluorocyclohexyl)methyl)-2,6-difluorobenzamide Hydrochloride]
329	CCS(=O)(=O)N1CCN(C2(CNC(=O)c3cc(F)c(F)cc3Cl)CCC(F)(F)CC2)CC1 [compound 214, 2-Chloro-N-((1-(4-(ethylsulfonyl)piperazin-1-yl)-4,4-difluorocyclohexyl)methyl)-4,5-difluorobenzamide Hydrochloride]
2460	CCS(=O)(=O)N1CCN(C2(CNC(=O)c3c(Cl)ccc(C(F)(F)F)c3Cl)CCC(F)(F)CC2)CC1 [compound 215, 2,6-Dichloro-N-((1-(4-(ethylsulfonyl)piperazin-1-yl)-4,4-difluorocyclohexyl)methyl)-3-(trifluoromethyl) benzamide Hydrochloride]
1290	CCS(=O)(=O)N1CCN(C2(CNC(=O)c3c(F)cc(OC)cc3F)CCC(F)(F)CC2)CC1 [compound 216, N-((1-(4-(Ethylsulfonyl)piperazin-1-yl)-4,4-difluorocyclohexyl)methyl)-2,6-difluoro-4-methoxybenzamide Hydrochloride]
216	CCS(=O)(=O)N1CCN(C2(CNC(=O)c3c(C)cc(C)cc3C)CCC(F)(F)CC2)CC1 [compound 217, N-((1-(4-(Ethylsulfonyl)piperazin-1-yl)-4,4-difluorocyclohexyl)methyl)-2,4,6-trimethylbenzamide Hydrochloride]
10	Cn1cc(S(=O)(=O)N2CCN(C3(CNC(=O)c4ccc(F)cc4F)CCC(F)(F)CC3)CC2)nn1 [compound 229, N-((4,4-Difluoro-1-(4-(1-methyl-1H-1,2,3-triazol-4-ylsulfonyl)piperazin-1-yl)cyclohexyl)methyl)-2,4-difluorobenzamide Hydrochloride]
2	CC1CN(S(=O)(=O)c2cn(C)nn2)C(C)CN1C1(CNC(=O)c2ccc(C(F)(F)F)cc2C(F)(F)F)CCC(F)(F)CC1 (stereo not drawn) [compound 237, N-((1-(2,5-Dimethyl-4-(1-methyl-1H-1,2,3-triazol-4-ylsulfonyl)piperazin-1-yl)-4,4-difluorocyclohexyl)methyl)-2,4-bis(trifluoromethyl) benzamide Hydrochloride]
12	Cn1cc(S(=O)(=O)N2CCN(C3(CNC(=O)c4cc(F)c(Cl)cc4F)CCC(F)(F)CC3)CC2)nn1 [compound 238, 4-Chloro-N-((4,4-difluoro-1-(4-(1-methyl-1H-1,2,3-triazol-4-ylsulfonyl)piperazin-1-yl)cyclohexyl)methyl)-2,5-difluorobenzamide Hydrochloride]
20	Cc1cc(F)c(C(=O)NCC2(N3CCN(S(=O)(=O)c4cn(C)nn4)CC3)CCC(F)(F)CC2)cc1F [compound 239, N-((4,4-Difluoro-1-(4-(1-methyl-1H-1,2,3-triazol-4-ylsulfonyl)piperazin-1-yl)cyclohexyl)methyl)-2,5-difluoro-4-methylbenz-amide Hydrochloride]
49	Cl.[2H]C([2H])([2H])n1cc(S(=O)(=O)N2CCN(C3(CNC(=O)c4ccc(C(F)(F)F)cc4Cl)CCC(F)(F)CC3)CC2)nn1 [compound 240, 2-Chloro-N-((4,4-difluoro-1-(4-(1-(tris-deutero)methyl-1H-1,2,3-triazol-4-ylsulfonyl)piperazin-1-yl)cyclohexyl)methyl)-4-(trifluoromethyl)benzamide Hydrochloride]
1	Cn1cc(S(=O)(=O)N2CCN(C3(CNC(=O)c4c(F)cc(Cl)cc4Cl)CCC(F)(F)CC3)CC2)nn1 [compound 241, 2,4-Dichloro-N-((4,4-difluoro-1-(4-(1-methyl-1H-1,2,3-triazol-4-ylsulfonyl)piperazin-1-yl)cyclohexyl)methyl)-6-fluorobenzamide Hydrochloride]
1	Cc1ccc(C(=O)NCC2(N3CCN(S(=O)(=O)c4cn(C)nn4)CC3)CCC(F)(F)CC2)c(Cl)c1F [compound 242, 2-Chloro-N-((4,4-difluoro-1-(4-(1-methyl-1H-1,2,3-triazol-4-ylsulfonyl)piperazin-1-yl)cyclohexyl)methyl)-3-fluoro-4-methylbenzamide Hydrochloride]
57	CCCS(=O)(=O)N1CCN(C2(CNC(=O)c3cc(Cl)ccc3Cl)CCC(F)(F)CC2)CC1 [compound 243, 2,5-Dichloro-N-((4,4-difluoro-1-(4-(propylsulfonyl)piperazin-1-yl)cyclohexyl)methyl) benzamide Hydrochloride]
51	CCC(F)S(=O)(=O)N1CCN(C2(CNC(=O)c3ccc(C(F)(F)F)cc3Cl)CCC(F)(F)CC2)CC1 (stereo not drawn) [compound 244, 2-Chloro-N-((4,4-difluoro-l-(4-(1-fluoropropylsulfonyl)piperazin-1-yl)cyclohexyl)methyl)-4-(trifluoromethyl)benzamide Hydrochloride]
37	CCCS(=O)(=O)N1CCN(C2(CNC(=O)c3ccc(C4CC4)cc3Cl)CCC(F)(F)CC2)CC1 [compound 247, 2-Chloro-4-cyclopropyl-N-((4,4-difluoro-1-(4-(propylsulfonyl)piperazin-1-yl)cyclohexyl)methyl) benzamide Hydrochloride]
159	CCCS(=O)(=O)N1CCN(C2(CNC(=O)c3cc(C(F)(F)F)ccc3C(F)(F)F)CCC(F)(F)CC2)CC1 [compound 248, N-((4,4-Difluoro-1-(4-(propylsulfonyl)piperazin-1-yl)cyclohexyl)methyl)-2,5-bis(trifluoromethyl) benzamide Hydrochloride]
37	CCCS(=O)(=O)N1CCN(C2(CNC(=O)c3ccc(Cl)cc3OC(F)F)CCC(F)(F)CC2)CC1 [compound 249, 4-Chloro-N-((4,4-difluoro-1-(4-(propylsulfonyl)piperazin-1-yl)cyclohexyl)methyl)-2-(difluoromethoxy) benzamide Hydrochloride]
24	CCCS(=O)(=O)N1CCN(C2(CNC(=O)c3c(F)cccc3OC(F)F)CCC(F)(F)CC2)CC1 [compound 250, N-((4,4-Difluoro-1-(4-(propylsulfonyl)piperazin-1-yl)cyclohexyl)methyl)-2-(difluoromethoxy)-6-fluorobenzamide Hydrochloride]
987	CCC(F)(F)S(=O)(=O)N1CCN(C2(CNC(=O)c3ccc(C(F)(F)F)cc3Cl)CCC(F)(F)CC2)CC1 [compound 251, 2-Chloro-N-((1-(4-(1,1-difluoropropylsulfonyl)piperazin-1-yl)-4,4-difluorocyclohexyl)methyl)-4-(trifluoromethyl) benzamide Hydrochloride]

— patent publication US9045445B2, “Glycine transporter-1 inhibitors, methods of making them, and uses thereof” (Albany Molecular Research, Inc., priority 2010, dated 2015)
